Laboratory results from ChEMBL document CHEMBL5465560, “Selectivity Literature for EUbOPEN Chemogenomic Library” (2024).

Legend:
[1] = molecular target: Cyclin-dependent kinase 2/cyclin E (Homo sapiens) (UniProt P24864+P24941+O96020); conditions: at 1 µM
[2] = molecular target: T1, Receptor-type tyrosine-protein kinase FLT3 (Homo sapiens, UniProt P36888); assay: Selectivity interaction (Kinase panel (literature)) EUB0001623a FLT3
T1 sequence (P36888 whole entry): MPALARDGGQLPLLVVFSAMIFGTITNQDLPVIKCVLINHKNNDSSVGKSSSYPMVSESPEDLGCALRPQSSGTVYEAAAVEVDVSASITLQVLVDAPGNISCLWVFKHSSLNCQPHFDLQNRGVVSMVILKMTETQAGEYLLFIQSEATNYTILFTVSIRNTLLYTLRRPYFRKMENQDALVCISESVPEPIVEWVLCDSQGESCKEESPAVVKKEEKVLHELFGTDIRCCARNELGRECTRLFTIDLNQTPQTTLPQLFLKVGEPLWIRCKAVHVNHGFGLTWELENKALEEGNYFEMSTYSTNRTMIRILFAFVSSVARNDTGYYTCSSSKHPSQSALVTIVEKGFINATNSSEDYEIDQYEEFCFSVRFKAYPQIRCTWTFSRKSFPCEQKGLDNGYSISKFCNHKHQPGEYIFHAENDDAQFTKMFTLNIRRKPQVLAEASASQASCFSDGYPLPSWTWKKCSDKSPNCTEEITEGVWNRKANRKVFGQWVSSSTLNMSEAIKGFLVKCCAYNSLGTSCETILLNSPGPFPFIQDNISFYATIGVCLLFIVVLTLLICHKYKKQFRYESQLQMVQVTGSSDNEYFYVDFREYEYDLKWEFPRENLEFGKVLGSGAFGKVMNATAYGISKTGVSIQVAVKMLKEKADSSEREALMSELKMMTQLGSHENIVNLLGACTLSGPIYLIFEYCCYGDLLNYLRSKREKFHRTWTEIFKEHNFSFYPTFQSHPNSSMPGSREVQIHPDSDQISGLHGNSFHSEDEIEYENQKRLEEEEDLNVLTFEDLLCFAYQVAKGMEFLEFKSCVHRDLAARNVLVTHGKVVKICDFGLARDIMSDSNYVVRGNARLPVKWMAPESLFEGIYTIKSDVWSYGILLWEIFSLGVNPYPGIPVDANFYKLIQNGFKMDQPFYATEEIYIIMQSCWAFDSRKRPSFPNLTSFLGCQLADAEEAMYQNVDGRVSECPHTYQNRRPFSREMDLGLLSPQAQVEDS

[3] = molecular target: Adenosine receptor A1 (Homo sapiens) (UniProt P30542); assay: Selectivity interaction (CEREP panel (binding assay, receptors and ion channels)) EUB0001623a ADORA1; conditions: at 1 µM
[4] = molecular target: Cyclin-dependent kinase 3 (Homo sapiens) (UniProt Q00526); conditions: at 1 µM
[5] = molecular target: Cyclin-dependent kinase 5 (Homo sapiens, UniProt Q00535); assay: (§1) Selectivity interaction (Kinase panel (literature)) EUB0001623a CDK5; conditions: at 1 µM
[6] = molecular target: CDK7/Cyclin H/MNAT1 (Homo sapiens) (UniProt P51946+P50613+P51948); assay: Selectivity interaction (Kinase panel (literature)) EUB0001623a CDK7; assay type: protein-complex assay; conditions: at 1 µM
D(2) dopamine receptor [7] = molecular target: T2, D(2) dopamine receptor (Homo sapiens, UniProt P14416); assay: (§2) Selectivity interaction (CEREP panel (binding assay, receptors and ion channels)) EUB0001623a DRD2
D(2) dopamine receptor [8] = molecular target: T2, D(2) dopamine receptor; assay: as §2; conditions: at 1 µM
[9] = molecular target: Cyclin-dependent kinase 2/cyclin A (Homo sapiens) (UniProt P24941+P20248+P78396); assay: Selectivity interaction (Kinase panel (literature)) EUB0001623a CDK2; assay type: protein-complex assay; conditions: at 1 µM
[10] = molecular target: Ribosomal protein S6 kinase beta-1 (Homo sapiens, UniProt P23443); assay: Selectivity interaction (Kinase panel (literature)) EUB0001623a RPS6KB1; conditions: at 1 µM
[11] = molecular target: CDK5/Cyclin D3 (Homo sapiens) (UniProt Q00535+P30281); assay: as §1; assay type: protein-complex assay; conditions: at 1 µM
[12] = molecular target: Cyclin-dependent kinase 9 (Homo sapiens, UniProt P50750); assay: Selectivity interaction (Reporter displacement assay) EUB0001623a CDK9
[13] = molecular target: CDK6/cyclin D3 (Homo sapiens) (UniProt P30281+Q00534); assay: Selectivity interaction (Kinase panel (literature)) EUB0001623a CDK6; assay type: protein-complex assay; conditions: at 1 µM
[14] = molecular target: T3, Serine/threonine-protein kinase Sgk1 (Homo sapiens) (UniProt O00141); assay: Selectivity interaction (Kinase panel (literature)) EUB0001623a SGK1; conditions: at 1 µM
T3 sequence (whole entry): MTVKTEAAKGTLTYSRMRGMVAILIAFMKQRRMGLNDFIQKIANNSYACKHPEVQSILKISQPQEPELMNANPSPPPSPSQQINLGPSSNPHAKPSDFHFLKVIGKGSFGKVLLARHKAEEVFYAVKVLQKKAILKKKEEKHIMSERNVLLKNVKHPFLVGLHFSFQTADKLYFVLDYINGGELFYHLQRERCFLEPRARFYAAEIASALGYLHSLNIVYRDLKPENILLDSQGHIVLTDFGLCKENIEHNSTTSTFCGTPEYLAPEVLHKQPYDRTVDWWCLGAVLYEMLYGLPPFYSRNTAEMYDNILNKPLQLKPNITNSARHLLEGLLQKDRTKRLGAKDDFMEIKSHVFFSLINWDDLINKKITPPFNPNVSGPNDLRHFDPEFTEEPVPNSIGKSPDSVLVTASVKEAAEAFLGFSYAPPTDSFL

[15] = molecular target: CDK9/cyclin T1 (Homo sapiens) (UniProt O60563+P50750); assay: Selectivity interaction (Kinase panel (literature)) EUB0001623a CDK9; assay type: protein-complex assay; conditions: at 1 µM
[16] = molecular target: Cyclin-dependent kinase 8 (Homo sapiens, UniProt P49336); assay: Selectivity interaction (Reporter displacement assay) EUB0001623a CDK8
[17] = molecular target: Cyclin-dependent kinase 1/cyclin B (Homo sapiens) (UniProt P06493+P14635+Q8WWL7+O95067); assay: Selectivity interaction (Kinase panel (literature)) EUB0001623a CDK1; assay type: protein-complex assay; conditions: at 1 µM
[18] = molecular target: NT-3 growth factor receptor (Homo sapiens, UniProt Q16288); assay: Selectivity interaction (Kinase panel (literature)) EUB0001623a NTRK3
[19] = molecular target: T4, Cyclin-dependent kinase 13 (Homo sapiens, UniProt Q14004); assay: Selectivity interaction (Western blot assay (pull-down blockage of CDK7-cyclin H using lysates from Jurkat cells)) EUB0001635a CDK13; assay type: subcellular, lysate
[20] = molecular target: T4, Cyclin-dependent kinase 13; assay: Selectivity interaction (Radioactive kinase activity assay) EUB0001635a CDK13
[21] = molecular target: T5, Cyclin-dependent kinase 12 (Homo sapiens, UniProt Q9NYV4); assay: Selectivity interaction (Western blot assay (pull-down blockage of CDK7-cyclin H using lysates from HAP1 cells)) EUB0001635a CDK12; assay type: cell-based
[22] = molecular target: T6, Cyclin-dependent kinase 7 (Homo sapiens, UniProt P50613); assay: Selectivity interaction (Electrophoretic mobility shift assay) EUB0001635a CDK7
[23] = molecular target: T5, Cyclin-dependent kinase 12; assay: Selectivity interaction (Western blot assay (pull-down blockage of CDK7-cyclin H using lysates from Jurkat cells)) EUB0001635a CDK12; assay type: subcellular, lysate
[24] = molecular target: T5, Cyclin-dependent kinase 12; assay: Selectivity interaction (Radioactive kinase activity assay) EUB0001635a CDK12
[25] = molecular target: T6, Cyclin-dependent kinase 7; assay: Selectivity interaction (Western blot assay (pull-down blockage of CDK7-cyclin H using lysates from HAP1 cells)) EUB0001635a CDK7; assay type: cell-based
[26] = molecular target: T4, Cyclin-dependent kinase 13; assay: Selectivity interaction (Western blot assay (pull-down blockage of CDK7-cyclin H using lysates from HAP1 cells)) EUB0001635a CDK13; assay type: cell-based
[27] = molecular target: Cyclin-dependent kinase 7 (Homo sapiens, UniProt P50613, C312S); assay: Selectivity interaction (Radioactive kinase assays (from cellular C312S flag-tagged CDK7 immunoprecipitated in HeLa cells)) EUB0001635a CDK7; assay type: cell-based
[28] = molecular target: T6, Cyclin-dependent kinase 7; assay: Selectivity interaction (Western blot assay (pull-down blockage of CDK7-cyclin H using lysates from Jurkat cells)) EUB0001635a CDK7; assay type: subcellular, lysate

T6 sequence (P50613 whole entry): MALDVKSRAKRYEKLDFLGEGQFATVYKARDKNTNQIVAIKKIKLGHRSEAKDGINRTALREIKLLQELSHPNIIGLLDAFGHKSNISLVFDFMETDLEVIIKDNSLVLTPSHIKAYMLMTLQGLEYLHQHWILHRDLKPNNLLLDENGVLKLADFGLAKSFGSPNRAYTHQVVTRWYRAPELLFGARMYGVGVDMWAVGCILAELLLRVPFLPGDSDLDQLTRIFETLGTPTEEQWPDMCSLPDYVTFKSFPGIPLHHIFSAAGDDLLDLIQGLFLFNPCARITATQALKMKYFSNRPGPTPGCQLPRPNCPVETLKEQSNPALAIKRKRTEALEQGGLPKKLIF
T4 sequence (Q14004 whole entry): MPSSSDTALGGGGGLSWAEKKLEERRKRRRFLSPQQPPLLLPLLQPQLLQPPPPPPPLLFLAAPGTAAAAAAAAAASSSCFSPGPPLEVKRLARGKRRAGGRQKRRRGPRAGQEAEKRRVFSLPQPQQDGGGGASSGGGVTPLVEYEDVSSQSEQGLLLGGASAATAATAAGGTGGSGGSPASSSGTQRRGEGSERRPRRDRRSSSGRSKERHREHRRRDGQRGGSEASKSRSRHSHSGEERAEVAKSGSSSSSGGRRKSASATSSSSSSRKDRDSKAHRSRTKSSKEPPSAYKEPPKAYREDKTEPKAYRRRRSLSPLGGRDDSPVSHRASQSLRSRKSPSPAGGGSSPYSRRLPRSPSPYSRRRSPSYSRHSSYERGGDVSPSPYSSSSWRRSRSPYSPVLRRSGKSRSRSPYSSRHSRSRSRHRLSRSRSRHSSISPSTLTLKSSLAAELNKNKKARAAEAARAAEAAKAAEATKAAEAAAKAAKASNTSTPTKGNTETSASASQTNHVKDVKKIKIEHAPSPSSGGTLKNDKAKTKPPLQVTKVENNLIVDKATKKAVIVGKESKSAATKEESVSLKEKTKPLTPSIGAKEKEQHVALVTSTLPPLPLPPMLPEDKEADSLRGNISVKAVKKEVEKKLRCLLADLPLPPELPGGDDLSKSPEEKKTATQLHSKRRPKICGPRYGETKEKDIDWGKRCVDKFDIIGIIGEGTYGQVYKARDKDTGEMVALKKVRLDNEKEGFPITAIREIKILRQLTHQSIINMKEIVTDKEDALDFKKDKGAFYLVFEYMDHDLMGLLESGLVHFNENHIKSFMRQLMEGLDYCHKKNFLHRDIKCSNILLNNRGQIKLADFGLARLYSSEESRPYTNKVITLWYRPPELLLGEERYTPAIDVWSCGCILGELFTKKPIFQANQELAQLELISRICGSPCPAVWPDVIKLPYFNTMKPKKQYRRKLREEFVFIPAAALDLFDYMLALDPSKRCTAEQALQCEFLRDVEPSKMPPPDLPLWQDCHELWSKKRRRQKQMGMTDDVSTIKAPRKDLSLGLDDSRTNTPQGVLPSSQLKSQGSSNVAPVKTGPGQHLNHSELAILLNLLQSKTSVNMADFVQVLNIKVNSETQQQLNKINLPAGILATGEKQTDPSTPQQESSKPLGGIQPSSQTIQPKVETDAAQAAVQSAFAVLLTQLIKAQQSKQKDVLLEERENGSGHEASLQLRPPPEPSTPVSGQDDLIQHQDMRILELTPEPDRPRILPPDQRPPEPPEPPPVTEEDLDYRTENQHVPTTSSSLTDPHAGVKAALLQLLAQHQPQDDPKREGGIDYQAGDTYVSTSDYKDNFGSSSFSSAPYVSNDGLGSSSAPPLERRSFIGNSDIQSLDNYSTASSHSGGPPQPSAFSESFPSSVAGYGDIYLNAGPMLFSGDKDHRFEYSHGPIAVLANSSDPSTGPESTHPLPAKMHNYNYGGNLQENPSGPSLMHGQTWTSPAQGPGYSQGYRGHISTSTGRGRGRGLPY
T5 sequence (Q9NYV4 whole entry): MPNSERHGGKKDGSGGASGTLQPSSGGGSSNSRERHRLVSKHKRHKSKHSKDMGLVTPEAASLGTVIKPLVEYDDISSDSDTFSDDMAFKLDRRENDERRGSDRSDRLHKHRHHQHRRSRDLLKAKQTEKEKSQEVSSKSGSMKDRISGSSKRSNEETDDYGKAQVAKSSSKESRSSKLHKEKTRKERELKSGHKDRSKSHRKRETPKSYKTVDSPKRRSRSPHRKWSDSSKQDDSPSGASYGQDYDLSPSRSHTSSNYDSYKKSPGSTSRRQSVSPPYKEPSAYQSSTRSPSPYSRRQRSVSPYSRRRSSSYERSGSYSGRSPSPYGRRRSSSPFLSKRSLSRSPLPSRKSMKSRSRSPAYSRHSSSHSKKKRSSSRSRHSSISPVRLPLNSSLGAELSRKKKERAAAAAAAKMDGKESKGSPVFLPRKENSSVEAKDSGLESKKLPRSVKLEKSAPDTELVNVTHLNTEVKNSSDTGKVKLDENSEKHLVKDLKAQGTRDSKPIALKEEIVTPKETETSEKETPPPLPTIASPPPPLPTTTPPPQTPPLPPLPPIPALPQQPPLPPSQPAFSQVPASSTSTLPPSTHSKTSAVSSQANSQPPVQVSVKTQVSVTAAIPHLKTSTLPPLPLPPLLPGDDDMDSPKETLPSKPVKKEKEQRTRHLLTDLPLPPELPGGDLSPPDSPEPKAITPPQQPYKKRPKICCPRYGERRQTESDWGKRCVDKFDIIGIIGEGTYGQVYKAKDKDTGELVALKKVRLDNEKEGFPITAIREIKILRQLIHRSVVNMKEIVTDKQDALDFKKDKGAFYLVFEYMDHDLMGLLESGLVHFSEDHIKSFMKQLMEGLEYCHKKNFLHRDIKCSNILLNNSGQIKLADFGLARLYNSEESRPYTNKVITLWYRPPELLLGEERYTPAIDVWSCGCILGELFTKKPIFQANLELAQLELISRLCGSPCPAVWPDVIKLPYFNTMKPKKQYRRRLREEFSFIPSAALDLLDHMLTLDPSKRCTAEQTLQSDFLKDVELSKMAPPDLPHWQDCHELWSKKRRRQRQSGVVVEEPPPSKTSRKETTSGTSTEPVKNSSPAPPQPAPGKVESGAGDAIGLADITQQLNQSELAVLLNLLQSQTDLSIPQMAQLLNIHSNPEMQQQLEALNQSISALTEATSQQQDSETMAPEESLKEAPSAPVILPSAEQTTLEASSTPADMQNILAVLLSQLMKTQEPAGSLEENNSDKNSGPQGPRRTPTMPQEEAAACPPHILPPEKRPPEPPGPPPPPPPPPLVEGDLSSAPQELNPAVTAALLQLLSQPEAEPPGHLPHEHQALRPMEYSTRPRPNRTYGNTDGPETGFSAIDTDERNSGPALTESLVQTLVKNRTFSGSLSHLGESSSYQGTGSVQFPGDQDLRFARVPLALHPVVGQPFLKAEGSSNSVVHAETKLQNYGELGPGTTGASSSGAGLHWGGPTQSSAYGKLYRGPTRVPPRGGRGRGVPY
T2 sequence (P14416 whole entry): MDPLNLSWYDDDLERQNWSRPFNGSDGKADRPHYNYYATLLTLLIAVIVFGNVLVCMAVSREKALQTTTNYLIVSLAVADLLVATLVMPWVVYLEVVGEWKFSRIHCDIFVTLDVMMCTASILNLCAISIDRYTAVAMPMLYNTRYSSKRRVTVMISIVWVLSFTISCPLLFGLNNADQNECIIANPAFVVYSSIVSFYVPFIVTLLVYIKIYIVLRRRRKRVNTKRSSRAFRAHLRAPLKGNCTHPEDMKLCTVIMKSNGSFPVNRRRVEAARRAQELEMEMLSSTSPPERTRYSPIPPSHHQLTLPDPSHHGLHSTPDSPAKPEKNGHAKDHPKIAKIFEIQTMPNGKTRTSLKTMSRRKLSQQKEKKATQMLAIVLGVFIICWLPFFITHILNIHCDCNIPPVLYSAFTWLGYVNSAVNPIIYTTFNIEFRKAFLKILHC
Cyclin-dependent kinase 5, sequence (Q00535 whole entry, looked up): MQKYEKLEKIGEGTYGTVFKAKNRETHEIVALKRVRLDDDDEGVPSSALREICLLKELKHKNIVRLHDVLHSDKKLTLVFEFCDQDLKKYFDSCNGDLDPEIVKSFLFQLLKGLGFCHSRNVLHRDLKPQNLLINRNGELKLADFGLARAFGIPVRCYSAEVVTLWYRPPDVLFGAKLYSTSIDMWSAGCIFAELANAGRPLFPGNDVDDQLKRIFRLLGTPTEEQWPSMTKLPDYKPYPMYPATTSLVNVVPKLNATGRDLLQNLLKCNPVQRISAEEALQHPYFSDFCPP
Cyclin-dependent kinase 3 (Homo sapiens), sequence (Q00526 whole entry, looked up): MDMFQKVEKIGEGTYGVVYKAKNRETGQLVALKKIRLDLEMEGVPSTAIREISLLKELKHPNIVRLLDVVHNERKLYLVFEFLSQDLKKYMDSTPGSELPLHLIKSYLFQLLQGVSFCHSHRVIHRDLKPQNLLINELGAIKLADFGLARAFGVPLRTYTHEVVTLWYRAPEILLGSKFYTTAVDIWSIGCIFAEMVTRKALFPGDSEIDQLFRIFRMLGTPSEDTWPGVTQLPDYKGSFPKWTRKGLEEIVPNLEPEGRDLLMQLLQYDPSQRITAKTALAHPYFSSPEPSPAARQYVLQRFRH
Cyclin-dependent kinase 9, sequence (P50750 whole entry): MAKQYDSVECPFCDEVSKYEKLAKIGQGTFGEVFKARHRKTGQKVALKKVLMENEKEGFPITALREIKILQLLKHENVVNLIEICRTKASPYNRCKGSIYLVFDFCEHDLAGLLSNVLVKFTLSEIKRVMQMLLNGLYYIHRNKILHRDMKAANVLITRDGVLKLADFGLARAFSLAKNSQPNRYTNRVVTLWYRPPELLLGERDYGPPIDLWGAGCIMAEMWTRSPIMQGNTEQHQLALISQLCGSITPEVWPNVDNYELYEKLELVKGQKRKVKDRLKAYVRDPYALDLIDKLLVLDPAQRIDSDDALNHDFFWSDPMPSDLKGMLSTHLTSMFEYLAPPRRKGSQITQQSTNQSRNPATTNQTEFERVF

How did the % of inhibition [1] turn out when `Cc1n[nH]c2ncc(C(=O)N3CCC[C@H]3c3ccc(Cl)cc3)cc12` was run?
The % of inhibition was 18%.

What about the IC50 [2] of the same compound?
The IC50 was > 30000 nM.

And the % of inhibition [3]?
The % of inhibition was 48%.

What about the % of inhibition [4] of the same compound?
Its % of inhibition is 2%.

What about the % of inhibition [5] of the same compound?
The % of inhibition was -1%.

What about the % of inhibition [6] of the same compound?
The % of inhibition was 7%.

What about the IC50 (D(2) dopamine receptor [7]) of the same compound?
The IC50 was 8500 nM.

What about the % of inhibition (D(2) dopamine receptor [8]) of the same compound?
The % of inhibition was 54%.

And the % of inhibition [9]?
Its % of inhibition is -7%.

What about the % of inhibition [10] of the same compound?
The % of inhibition was 47%.

And the % of inhibition [11]?
The % of inhibition was -1%.

And the IC50 [12]?
The IC50 was 4 nM.

And the % of inhibition [13]?
Its % of inhibition is 12%.

And the % of inhibition [14]?
The % of inhibition was 39%.

And the % of inhibition [15]?
The % of inhibition was 13%.

And the IC50 [16]?
Its IC50 is 4 nM.

And the % of inhibition [17]?
The % of inhibition was 2%.

What about the IC50 [18] of the same compound?
Its IC50 is > 30000 nM.

With `C=CC(=O)Nc1ccc(C(=O)Nc2n[nH]c3c2CN(C(=O)N[C@H](CN(C)C)c2ccccc2)C3(C)C)cc1` as the compound, how does the IC50 [19] read?
The IC50 was > 1000 nM.

What about the IC50 [20] of the same compound?
The IC50 was > 10000 nM.

And the IC50 [21]?
The IC50 was > 1000 nM.

And the Ki [22]?
The Ki was 1.9 nM.

And the IC50 [23]?
Its IC50 is > 1000 nM.

What about the IC50 [24] of the same compound?
Its IC50 is > 10000 nM.

And the IC50 [25]?
Its IC50 is > 30000 nM.

What about the IC50 [26] of the same compound?
Its IC50 is > 1000 nM.

And the IC50 [27]?
Its IC50 is > 10000 nM.

And the IC50 [28]?
Its IC50 is > 30000 nM.
